{"source": "patent US20180368393A1", "about": "“PRE- AND POST-STORAGE STRESS RESPONSE CONDITIONING” (CPSI HOLDINGS LLC, priority 2017, published 2018)", "key": {"human endothelial cells": {"test_system": "human endothelial cells", "assay": "Human endothelial cell monolayer survival and repopulation following cryopreservation (Calcein-AM assay)", "assay_type": "cell-based", "method": "A series of cryopreservation experiments was conducted on human endothelial and smooth muscle cell suspensions and monolayers to assess the performance of four (4) commercially available cryopreservation solutions: DP6, VS55, VS83, and M22, as well as nine (9) additional solutions: […] Eurocollins (EC) solution was included as a negative control, i.e., no cryoprotective agent (CPA) control, while media+10% DMSO ([…]) is a typical solution (10% DMSO) used in standard controlled rate cryopreservation protocols known to the skilled individual. Unisol is representative of the class of intracellular-like or intracellular-type solutions/media, whereas EC solution and culture media are representative of the class of extracellular-like or extracellular-type solutions/media. Other studies presented herein provide additional examples of intracellular- and extracellular-like solutions; other intracellular- and extracellular-like solutions are similarly useful and are known to those of skill in the art. FIG. 1 illustrates the results of an assessment of human endothelial cell survival following preservation. Monolayers of endothelial cells were frozen or vitrified and thawed in the indicated solutions (control, Uni, […], DP6, VS55, VS83, and […]). Following thawing, samples were diluted in culture media, placed into culture and assessed for viability at 1 day (24 hours) post-thaw and following seven (7) days of recovery using the Calcein-AM assay. […] The Uni and U10 conditions provided outcomes exceeding that of the VS55, VS83 and […] conditions. Therefore, subsequent studies (see, e.g., FIG. 2) focused on Unisol-based solutions with various CPAs and concentrations, in addition to the DP6 commercial cryopreservation solution. […] Monolayers of endothelial cells were frozen or vitrified and thawed in the indicated solutions. […] For pre-freeze (PF), post-warming (PW) and pre/post (P/P) conditioning studies, molecular modulation agents targeting inhibition of apoptosis (Caspase inhibitor IV, 8, 9 and a combination of Caspases 8 and 9), reduction of free-radical damage (resveratrol and NAC), and activation of the unfolded protein response (salubrinal) were employed as supplements in the media 1 hour prior to freezing (pre-freeze condition) or for 1 day following thawing and CPA removal from frozen samples (post-warming condition). Based on outcomes in the studies in Example 1, PF, PW and P/P conditioning were examined in Examples 2-3 using a series of Unisol-based solutions (Uni, U5, U10, U20, UG10, U5G10 and U10G10). […] Patent Application Publication No. US 2016/0097583 A1 (Ser. No. 14/876,087), which is incorporated by reference in its entirety as though fully set forth herein. The freeze and thaw process was slightly modified relative to the disclosure of U.S. Patent Application Publication No. US 2016/0097583 A1 by the addition of a 0.090 inch aluminum plate inserted into the bottom of the 96 well plate to aid in increasing cooling and heating uniformity throughout the plate, thereby reducing the well-to-well variability within the samples. The device was used to thaw the samples, which were frozen in situ in monolayers in standard 96-well tissue culture plates. […] A mitochondrial-mediated apoptotic inhibitor (Caspase 9) and a membrane-mediated apoptotic inhibitor (Caspase 8) were investigated to evaluate the involvement and impact of modulation of various apoptotic induction pathways. Additionally, a pan-Caspase inhibitor (Cas IV) was also investigated to assess the impact of global pathway modulation. As with the viability studies, cell survival and repopulation were assessed using Calcein-AM assays and analyzed using fluorescent microscopy (Zeiss). Survival was determined at 24 hours post-thaw to allow for the manifestation of any delayed onset cell death pathways to be executed. Further, cell recovery was included to evaluate the long term potency and repopulation potential of the various samples. […]"}, "[1]": {"test_system": "endothelial and smooth muscle cells", "assay": "Summary of Examples 2-3: post-thaw survival of endothelial and smooth muscle cells (Calcein-AM assay)", "assay_type": "cell-based, human", "method": "For pre-freeze (PF), post-warming (PW) and pre/post (P/P) conditioning studies, molecular modulation agents targeting inhibition of apoptosis (Caspase inhibitor IV, 8, 9 and a combination of Caspases 8 and 9), reduction of free-radical damage (resveratrol and NAC), and activation of the unfolded protein response (salubrinal) were employed as supplements in the media 1 hour prior to freezing (pre-freeze condition) or for 1 day following thawing and CPA removal from frozen samples (post-warming condition).\nThe device was used to thaw the samples, which were frozen in situ in monolayers in standard 96-well tissue culture plates. Samples were thawed from less than −170° C. to about 4° C. in the 96-well plate format in about 5 mins in a dry clean (“sterile”) environment.\nThe P/P regime was followed by PW using Caspase 8 inhibition or NAC inhibition."}}}
{"smiles": "CC(=O)N[C@@H](CS)C(=O)O", "note": "[NAC, n-acetyl cysteine]", "values": [{"measurement": "survival", "setting": "human endothelial cells; P/P conditioning with NAC, salubrinal or resveratrol, U10G10", "result": "~60", "unit": "%"}, {"measurement": "post-thaw viability", "setting": "human endothelial cells; P/P conditioning, U10 and U5G10 CP solutions vs matched non-treated samples", "result": "increase in post-thaw viability"}, {"measurement": "day 1 survival increase over non-treated samples", "setting": "human endothelial cells; P/P oxidative stress modulator conditioning, U10G10", "result": "~2.5", "unit": "fold"}, {"measurement": "day 1 survival increase over non-treated samples", "setting": "human endothelial cells; PF conditioning 1 hour, U10G10", "result": "~2", "unit": "fold"}, {"measurement": "day 1 survival increase over non-treated samples", "setting": "human endothelial cells; PW conditioning 24 hours, U10G10", "result": "~2", "unit": "fold"}, {"measurement": "post-thaw cell survival or recovery (overall)", "setting": "human endothelial cells; PW conditioning in combination with various solutions", "result": "Broader solution benefit"}, {"measurement": "cell recovery / repopulation, 3 days", "setting": "human endothelial cells; PW conditioning with oxidative stress modulators, vs non-treated", "result": "improved cell recovery"}, {"measurement": "increase in survival", "setting": "human endothelial cells; PW conditioning, U10 and U10G10 solutions, day 1", "result": "~50", "unit": "%"}, {"measurement": "day 1 post-thaw cell survival and cell recovery", "setting": "[1]; PF, PW and P/P conditioning, Unisol based solutions", "result": "Improvements in survival"}, {"measurement": "increase in cell survival over non-treated samples", "setting": "[1]; PW conditioning", "result": "~50", "unit": "%"}]}
